Experimental data taken from article PMC4175417 (Journal of clinical pharmacology, 2013).
Read-outs that look alike come from different tables or passages of the source. Marks after values point to notes of the source that are not given here.

Key:
mRCC patients [1] = test: Efficacy in mRCC studies; type: in vivo, human
[2] = In-clinic diastolic blood pressure in mRCC patients of the PK/PD analysis; type: in vivo, human; settings: maximum post-baseline dBP within the first 8 weeks; 168 mRCC patients
Axitinib exposure = type: in vivo; settings: human, plasma, oral
[3] = cited from earlier work
[4] = cited from earlier work; remark: listed apart in the source
mRCC = settings: second-line therapy for mRCC; cited from earlier work
clinical = settings: human, in vivo
mRCC patients [5] = settings: cited from earlier work
[6] = corrected serum calcium <10 mg/dL
[7] = corrected serum calcium ≥10 mg/dL
[8] = corrected serum calcium ≥10 vs <10 mg/dL
[9] = hemoglobin >13 g/dL for male, >11.5 for female
[10] = hemoglobin ≤13 g/dL for male, ≤11.5 for female
[11] = per 10 mm Hg increase of dBP, adjusted for prognostic factors
[12] = per 100 hxng/mL increase of AUC, adjusted for prognostic factors
[13] = sorafenib- vs cytokine-refractory

**Q.** With `CNC(=O)c1ccccc1Sc1ccc2c(/C=C/c3ccccn3)n[nH]c2c1` [axitinib] as the molecule, how does the mOS (mRCC patients [1]; AUC <300 hxng/mL) read?
**A.** 15.8 months

**Q.** What about the mPFS (mRCC patients [1]; AUC <300 hxng/mL) of the same molecule?
**A.** 7.4 months

**Q.** What about the mOS (mRCC patients [1]; AUC ≥300 hxng/mL) of the same molecule?
**A.** 37.4 months

**Q.** And the mPFS (mRCC patients [1]; AUC ≥300 hxng/mL)?
**A.** 13.8 months

**Q.** And the “OS HR (95% CI), multivariate” value (mRCC patients [1]; ECOG PS)?
**A.** 2.37 (1.50, 3.72)

**Q.** What about the “PFS HR (95% CI), multivariate” value (mRCC patients [1]; ECOG PS) of the same molecule?
**A.** 1.82 (1.17, 2.83)

**Q.** What about the mOS (mRCC patients [1]; ECOG PS 0) of the same molecule?
**A.** 41.6 months

**Q.** And the mPFS (mRCC patients [1]; ECOG PS 0)?
**A.** 13.7 months

**Q.** And the mOS (mRCC patients [1]; ECOG PS 1)?
**A.** 10.7 months

**Q.** What about the mPFS (mRCC patients [1]; ECOG PS 1) of the same molecule?
**A.** 7.13 months

**Q.** What about the “OS HR (95% CI), univariate” value (mRCC patients [1]; ECOG PS 1 vs 0) of the same molecule?
**A.** 3.63 (2.40, 5.48)

**Q.** What about the “PFS HR (95% CI), univariate” value (mRCC patients [1]; ECOG PS 1 vs 0) of the same molecule?
**A.** 2.17 (1.46, 3.23)

**Q.** And the “OS HR (95% CI), univariate” value (mRCC patients [1]; age, continuous)?
**A.** 0.992 (0.972, 1.01)

**Q.** And the “PFS HR (95% CI), univariate” value (mRCC patients [1]; age, continuous)?
**A.** 1.006 (0.986, 1.026)

**Q.** And the mOS (mRCC patients [1]; [6])?
**A.** 27.7 months

**Q.** And the mPFS (mRCC patients [1]; [6])?
**A.** 11.1 months

**Q.** And the mOS (mRCC patients [1]; [7])?
**A.** 16.4 months

**Q.** What about the mPFS (mRCC patients [1]; [7]) of the same molecule?
**A.** 8.38 months

**Q.** And the “OS HR (95% CI), univariate” value (mRCC patients [1]; [8])?
**A.** 1.74 (1.03, 2.96)

**Q.** What about the “PFS HR (95% CI), univariate” value (mRCC patients [1]; [8]) of the same molecule?
**A.** 1.21 (0.688, 2.13)

**Q.** And the mOS (mRCC patients [1]; cytokine-refractory)?
**A.** 30.0 months

**Q.** And the mPFS (mRCC patients [1]; cytokine-refractory)?
**A.** 13.0 months

**Q.** What about the mOS (mRCC patients [1]; dBP <90 mm Hg) of the same molecule?
**A.** 18.5 months

**Q.** What about the mPFS (mRCC patients [1]; dBP <90 mm Hg) of the same molecule?
**A.** 7.86 months

**Q.** And the mOS (mRCC patients [1]; dBP ≥90 mm Hg)?
**A.** 29.5 months

**Q.** And the mPFS (mRCC patients [1]; dBP ≥90 mm Hg)?
**A.** 14.6 months

**Q.** And the mOS (mRCC patients [1]; female)?
**A.** 19.6 months

**Q.** What about the mPFS (mRCC patients [1]; female) of the same molecule?
**A.** 7.63 months

**Q.** What about the “OS HR (95% CI), univariate” value (mRCC patients [1]; female vs male) of the same molecule?
**A.** 1.26 (0.799, 1.97)

**Q.** And the “PFS HR (95% CI), univariate” value (mRCC patients [1]; female vs male)?
**A.** 1.63 (1.09, 2.46)

**Q.** And the “Increase in the probability of achieving a partial response” value (mRCC patients [1]; for every 100 hxng/mL increase in AUC, logistic regression)?
**A.** 1.5 fold

**Q.** And the “PFS HR (95% CI), multivariate” value (mRCC patients [1]; gender)?
**A.** 1.72 (1.14, 2.60)

**Q.** And the “OS HR (95% CI), multivariate” value (mRCC patients [1]; hemoglobin)?
**A.** 0.348 (0.213, 0.567)

**Q.** And the “PFS HR (95% CI), multivariate” value (mRCC patients [1]; hemoglobin)?
**A.** 0.601 (0.393, 0.921)

**Q.** And the mOS (mRCC patients [1]; [9])?
**A.** 43.3 months

**Q.** And the mPFS (mRCC patients [1]; [9])?
**A.** 14.6 months

**Q.** What about the mOS (mRCC patients [1]; [10]) of the same molecule?
**A.** 15.9 months

**Q.** What about the mPFS (mRCC patients [1]; [10]) of the same molecule?
**A.** 7.69 months

**Q.** What about the “OS HR (95% CI), univariate” value (mRCC patients [1]; high vs low hemoglobin) of the same molecule?
**A.** 0.282 (0.179, 0.443)

**Q.** What about the “PFS HR (95% CI), univariate” value (mRCC patients [1]; high vs low hemoglobin) of the same molecule?
**A.** 0.537 (0.364, 0.792)

**Q.** What about the mOS (mRCC patients [1]; male) of the same molecule?
**A.** 27.7 months

**Q.** And the mPFS (mRCC patients [1]; male)?
**A.** 13.0 months

**Q.** What about the “OS HR (95% CI), multivariate” value (mRCC patients [1]; [11]) of the same molecule?
**A.** 0.739 (0.586, 0.931)

**Q.** What about the “PFS HR (95% CI), multivariate” value (mRCC patients [1]; [11]) of the same molecule?
**A.** 0.660 (0.519, 0.839)

**Q.** And the “OS HR (95% CI), multivariate” value (mRCC patients [1]; [12])?
**A.** 0.866 (0.773, 0.968)

**Q.** And the “PFS HR (95% CI), multivariate” value (mRCC patients [1]; [12])?
**A.** 0.909 (0.832, 0.993)

**Q.** What about the “OS HR (95% CI), multivariate” value (mRCC patients [1]; prior therapy) of the same molecule?
**A.** 2.12 (1.35, 3.34)

**Q.** What about the “PFS HR (95% CI), multivariate” value (mRCC patients [1]; prior therapy) of the same molecule?
**A.** 1.60 (1.04, 2.47)

**Q.** And the “OS HR (95% CI), univariate” value (mRCC patients [1]; [13])?
**A.** 2.15 (1.39, 3.34)

**Q.** What about the “PFS HR (95% CI), univariate” value (mRCC patients [1]; [13]) of the same molecule?
**A.** 1.55 (1.02, 2.34)

**Q.** What about the mOS (mRCC patients [1]; sorafenib-refractory) of the same molecule?
**A.** 15.8 months

**Q.** And the mPFS (mRCC patients [1]; sorafenib-refractory)?
**A.** 7.63 months

**Q.** What about the “dBP, median (range)” value [2] of the same molecule?
**A.** 90 (58–116) ^e mm Hg

**Q.** And the AUC (Axitinib exposure)?
**A.** 375 ng·h/mL

**Q.** What about the “Exposure compared with normal hepatic function” value ([3]; mild hepatic impairment) of the same molecule?
**A.** did not alter axitinib exposures

**Q.** And the “Higher exposure compared with normal hepatic function” value ([3]; moderate hepatic impairment)?
**A.** 2 fold

**Q.** And the “Effect of food on oral bioavailability” value (Form XLI)?
**A.** negligible effect

**Q.** And the “Vp (volume of distribution in peripheral compartment)” value (final model)?
**A.** 393 L

**Q.** What about the “Age >60-yr effect on CL” value (human, in vivo) of the same molecule?
**A.** −0.213

**Q.** What about the “F with Form XLI” value (human, in vivo) of the same molecule?
**A.** g F with Form XLI is estimated to be 0.402; calculated as 0.457 × (1 – 0.121). Note that there was no observed food effect with Form XLI.

**Q.** And the “F, fasting with Form IV” value (human, in vivo)?
**A.** f For fasting effect with Form IV, F is estimated to be 0.608; calculated as 0.457 × (1 + 0.33).

**Q.** And the “Fasting effect on ka” value (human, in vivo)?
**A.** 1.97

**Q.** What about the “Fasting on F, Form IV” value (human, in vivo) of the same molecule?
**A.** 0.330

**Q.** What about the “Japanese ethnicity effect on CL” value (human, in vivo) of the same molecule?
**A.** −0.249

**Q.** What about the “Q (apparent inter-compartmental clearance)” value (human, in vivo) of the same molecule?
**A.** 4.00 (86.8) ^d L/h

**Q.** What about the “Smoking status on CL” value (human, in vivo) of the same molecule?
**A.** 1.02

**Q.** And the “ka (first-order absorption rate constant): fed” value (human, in vivo)?
**A.** 0.482 (77) hour^–1

**Q.** And the “ka higher in the fasted state compared with the fed state” value (human, in vivo)?
**A.** 197%

**Q.** And the “ka, fasting” value (human, in vivo)?
**A.** e For fasting effect, ka is estimated to be 1.43 hour^−1; calculated as 0.482 hour^−1 × (1 + 1.97).

**Q.** And the “tlag (absorption lag time)” value (human, in vivo)?
**A.** 0.454 h

**Q.** And the “Increase of oral bioavailability in the fasted state compared with the fed state” value (human, in vivo, po)?
**A.** 33%

**Q.** And the “Time to peak plasma concentration” value ([4]; oral administration, fed state)?
**A.** 2 to 6 h

**Q.** What about the “Maximum tolerated dose (MTD)” value ([4]; study 1, patients with solid tumors) of the same molecule?
**A.** 5 mg bid

**Q.** What about the Efficacy versus sorafenib (mRCC) of the same molecule?
**A.** superior efficacy over sorafenib

**Q.** And the Vd (clinical)?
**A.** 47.3 L

**Q.** And the clearance (clinical)?
**A.** 243 mL/min

**Q.** And the “RECIST-based overall response rate” value (mRCC patients [5]; study 2, cytokine-refractory mRCC)?
**A.** 44%

**Q.** And the “RECIST-based overall response rate” value (mRCC patients [5]; study 4, sorafenib-refractory mRCC)?
**A.** 23%

**Q.** What about the “RECIST-based overall response rate” value (mRCC patients [5]; study 5, Japanese cytokine-refractory mRCC) of the same molecule?
**A.** 50%
